{
  "source": "paper PMC4811302",
  "about": "“Human β-defensin 3 contains an oncolytic motif that binds PI(4,5)P2 to mediate tumour cell permeabilisation” (Oncotarget, 2015)",
  "key": {"[1]": {"tested_on": "HUVEC cells", "assay": "Flow cytometry-based PI uptake assay, HUVEC", "assay_type": "cell-based, human", "conditions": "25 μM HBD-3, 37°C, 30 min, serum-free medium with 0.1% BSA", "experimental": "(§1) Cells suspended at 1×10^6 cells/mL in serum-free medium containing 0.1% (w/v) bovine serum albumin (BSA) (Sigma-Aldrich) were treated with HBD-3 at 37°C for 30 min. Nucleic acid stain propidium iodide (PI) was then added to a final concentration of 1 μg/mL and cells subjected to flow cytometry analysis using BD FACSCanto II Flow Cytometer and BD FACSDiva Software v6.1.1 (BD Biosciences, San Jose, CA). For each flow cytometry reading, 10,000 cells, gated appropriately based on forward scattering and side scattering, were recorded. The resultant data were processed using FlowJo software (Tree Star, San Carlos, CA) to determine PI-positivity, which reflects the level of membrane permeabilisation. For lipid inhibition assays, 15 μM HBD-3 was pre-incubated with 50 μM synthetic lipids, including L-α-phosphatidic acid (PA), L-α-phosphatidylcholine (PC), L-α-phosphatidylethanolamine (PE), L-α-phosphatidylserine (PS), L-α-phosphatidylinositol-4-phosphate (PI(4)P), L-α-phosphatidylinositol-3,5-bisphosphate (PI(3,5)P2), L-α-phosphatidylinositol-4,5-bisphosphate (PI(4,5)P2) and L-α-phosphatidylinositol-3,4,5-trisphosphate (PI(3,4,5)P)3. All lipids were sourced from Avanti Polar Lipids, Alabaster, AL. […]"}, "[2]": {"tested_on": "U937 cells", "assay": "Neomycin inhibition of membrane permeabilisation (PI uptake)", "assay_type": "cell-based, human", "conditions": "cells pre-treated with 10 mM neomycin, PI uptake by flow cytometry; effect overcome at higher HBD-3 concentrations", "experimental": "as §1"}, "[3]": {"assay": "Protein-lipid overlay assay, Membrane strip", "assay_type": "binding", "conditions": "1 μg/mL protein, immunodetection, densitometry", "experimental": "Protein-lipid overlay assays using Membrane strip™ or PIP strip™ (Echelon Biosciences, Salt Lake City, UT) were performed using 1 μg/mL proteins as described previously. Lipid binding was immunodetected using a combination of rabbit anti-HBD-3 IgG (50 μg/mL) and horseradish peroxidase-conjugated donkey-anti-rabbit Ig (10 μg/mL) antibodies. Chemiluminescence signal intensity was quantitated by densitometry analysis using ImageJ (National Institutes of Health, Bethesda, MD; http://imagej.nih.gov/ij/)."}, "[4]": {"tested_on": "tumour lines HeLa, HL-60, Jukat, U937 and PC3", "assay": "Tetrazolium-based cell viability assay, tumour lines", "design": "species or system human", "conditions": "range over HeLa, HL-60, Jurkat, 48 h, MTT (adherent) or MTS/PMS (suspension), estimated, three independent experiments", "experimental": "Human epithelial cervical cancer (HeLa), leukemic monocyte lymphoma (U937), prostate cancer (PC3), promyelocytic leukemia (HL-60), leukemic T cell lymphoblast (Jurkat) cells were cultured in RPMI-1640 medium supplemented with 5–10% (v/v) fetal calf serum (FCS), 100 U/mL penicillin and 100 μg/mL streptomycin (Invitrogen, Carlsbad, CA). Human umbilical vein […] cell (HUVEC) cells were cultured in M199 medium (Invitrogen) supplemented with 20% (v/v) FCS, 40 μg/mL gentamicin, 4 μg/mL endothelial cell growth factor, 4 μg/mL L-glutamine and 135 μg/mL heparin, in 0.1% (w/v) gelatin-coated Corning CELLBIND flask (Corning Life Sciences, Acton, MA). […]\nDifferent concentrations of HBD-3 were added to cells seeded in 96-well plates in appropriate complete medium. […] After 48 h, cell viability was determined using 3-(4,5-dimethylthiazol-2-yl)-2,5-diphenyltetrazolium bromide (MTT) (Sigma-Aldrich, MO) for adherent cells (HeLa, PC3, HUVEC, AHDF, CASMC) or 3-(4,5-dimethylthiazol-2-yl)-5-(3-carboxymethoxyphenyl)-2-(4-sulfophenyl)-2H-tetrazolium (MTS) (Promega, Madison, WI) coupled with phenzine methosulfate (PMS) (Promega) for suspension cells (U937, HL-60, Jurkat) prior to absorbance measurement at 570 nm and […], respectively. Absorbance readings of untreated control wells was designated as 100% cell viability."}, "[5]": {"assay": "ATP-encapsulated liposome leakage assay, PC only", "conditions": "bioluminescence, normalised to HEPES and Triton X-100", "experimental": "(§2) Liposomes were generated as described previously using natural PI(4,5)P2 (porcine brain, in chloroform:methanol:water at 20:9:1 molar ratio) and PC (chicken egg, in chloroform) purchased from Avanti Polar Lipids. PC only or PC:PI(4,5)P2 (95:5 molar ratio) solutions were dried under a stream of nitrogen gas followed by overnight vacuum-drying. The lipid films were rehydrated to a final concentration of 5 mg/mL in 20 mM HEPES (pH 7.2) containing 5 mg/mL adenosine-5-triphosphate disodium salt (ATP; Sigma-Aldrich) at 37°C for 1 h. After three subsequent cycles of freezing (liquid nitrogen) and thawing (25°C), multilamellar liposomes were extruded 15–20 times through a mini-extruder (Avanti Polar Lipids). Free ATP was removed by three centrifugal washes with 20 mM HEPES at 16,500 g prior to the ATP release assay. Liposomes treated with 1% Triton X-100 were included as positive control and assigned as total lysis, whereas HEPES only control served as background reading. The level of ATP release at a particular time point was determined by quotient of the corrected reading (after subtracting background) of the sample at that time point and corrected reading of total lysis, as per the following equation: % Lysist=Samplet−HEPESt/Triton X−HEPES×100"}, "[6]": {"assay": "ATP-encapsulated liposome leakage assay, PC:PI(4,5)P2", "conditions": "PC liposomes containing 5% PI(4,5)P2, concentration-dependent, compared with PC only", "experimental": "as §2"}, "[7]": {"tested_on": "HeLa cells", "assay": "ATP bioluminescence release assay, HeLa", "assay_type": "cell-based, human", "conditions": "HBD-3 titrations, bioluminescence for 30 min, PBS with 0.1% BSA, concentration-dependent", "experimental": "ATP release assay was conducted using an ATP bioluminescence assay kit (Roche Diagnostics, Mannheim, Germany). U937 and HeLa cells were suspended at 1×10^6 cells/mL in PBS containing 0.1% (w/v) BSA, and mixed with luciferase/luciferin reagent at a ratio of 4:5. The mixture was added to HBD-3 samples and the level of ATP release measured immediately as bioluminescence emission signal intensity for 30 min with 30 s intervals."}},
  "note": "Where no end group is shown, it is not given here.",
  "data": [
    {"substance": "human β-defensin 3 (GIINTLQKYYCRVRGGRCAVLSCLPKEEQIGKCSTRGRKCCRRKK; not fully specified; cysteine pairing not given here; UniProt P81534 23-67, looked up) [HBD-3, human β-defensin 3, cationic antimicrobial peptide, recombinantly expressed in P. pastoris]", "values": [
      {"measurement": "PI-positive cells", "setting": "[1]", "result": 14.5, "unit": "%"},
      {"measurement": "susceptibility of neomycin pre-incubated cells to permeabilisation compared to untreated control", "setting": "[2]", "result": "significantly less susceptible"},
      {"measurement": "relative binding intensity to lipids on Membrane strip", "setting": "[3]", "result": "greater relative binding intensity toward phospholipids"},
      {"measurement": "IC50", "setting": "[4]", "result": "8 to 20", "unit": "µM"},
      {"measurement": "ATP release from ATP-encapsulated liposomes", "setting": "[5]", "result": "minimally induced ATP release"},
      {"measurement": "ATP release from ATP-encapsulated liposomes", "setting": "[6]", "result": "much higher level of ATP was released"},
      {"measurement": "cytoplasmic ATP release", "setting": "[7]", "result": "rapidly released"}
    ]}
  ]
}
